Test results: PMC11596972, “Synthesis and Antimicrobial Activity of 3-Alkylidene-2-Indolone Derivatives” (Molecules, 2024)
Values after ≈ are worked out from the molar mass of the structure shown. Where two headings read alike, the source gives them in different places.

Key:
MRSA ATCC 43300 = test: MIC, double dilution method, MRSA ATCC 43300; type: cell-based, Methicillin-resistant Staphylococcus aureus; conditions: Staphylococcus aureus, 24 h, MRSA ATCC 43300, Gram-positive, 24 h culture
S. aureus 4220 = test: MIC, double dilution method, S. aureus 4220; type: cell-based; conditions: Staphylococcus aureus, 4220, 24 h
E. coli 1924 = test: MIC, double dilution method, E. coli 1924; type: cell-based, Escherichia coli
C. albicans CMCC 98001 = test: MIC, double dilution method, C. albicans CMCC 98001; type: cell-based, Candida albicans; conditions: for MIC: C. albicans CMCC 98001, fungus, 24 h culture
E. coli ATCC 25922 = test: MIC, double dilution method, E. coli ATCC 25922; type: cell-based; conditions: Escherichia coli
P. aeruginosa CMCC 10211 = test: MIC, double dilution method, P. aeruginosa CMCC 10211; type: cell-based; conditions: Pseudomonas aeruginosa
S. aureus ATCC 6538 = test: MIC, double dilution method, S. aureus ATCC 6538; type: cell-based; conditions: Staphylococcus aureus, ATCC6538, 24 h
[1] = tested on: Candida albicans CMCC 98001; test: Minimum fungicidal concentration, C. albicans CMCC 98001; type: cell-based
Experimental: (§1) Moreover, minimum bactericidal concentration (MBC (μg/mL)) or minimum fungicidal concentration (MFC (μg/mL)) assays were performed for the promising compounds 10d, 10f, 10g and 10h against Staphylococcus aureus ATCC 6538, Staphylococcus aureus 4220, Staphylococcus aureus ATCC 43300 and Candida albicans CMCC 98001, and shown in Table 2.
(§2) The minimum bactericidal concentration (MBC) or minimum fungicidal concentration (MFC) was determined as described, following the MIC assay, by subculturing 5 μL of the compounds from wells showing no visible growth onto fresh agar plates. The plates were incubated at 37 °C for 24 h.

[2] = Cytotoxicity, MTT assay, L-02; type: cell-based; conditions: human, L-02 cells (normal liver cell line), 48 h incubation
Experimental: (§3) The cytotoxicity of the most bioactive compounds 10f, 10g and 10h were evaluated in vitro against the HepG2 cell line (human hepatocellular carcinoma cell line) and the L-02 cell line (normal liver cell line) by 3-(4,5-dimethylthiazol-2-yl)-2,5-diphenyltetrazolium bromide (MTT) assay. The obtained results were presented by the inhibitory concentration that reduces the viability of the cell population to 50% of the maximal viability (IC50).
(§4) HepG2 cells and L-02 cells (ATCC, Manassas, VA, USA) were plated in 96-well plates at a density of 30–40% to ensure exponential growth throughout the experimental period, and then allowed to adhere for 1 day. Next, the cells were treated with eight concentrations (100, 50, 25, 10, 5, 1, 0.1, and 0.01 μmol/L) of each compound. After 48 h of incubation, MTT solution was added to each well at a final concentration of 2 mg/mL and incubated for an additional 4 h. Next, the MTT solution was removed and […] of dimethyl sulphoxide (DMSO)/well was added (Sigma-Aldrich, St. Louis, MO, USA). The plates were shaken vigorously at RT to ensure complete solubilization, and absorption at 492 nm was determined by a microplate reader (BioTek Instruments, Inc., Winooski, VT, USA). At least three independent experiments were conducted.

[3] = Cytotoxicity, MTT assay, HepG2; type: cell-based; conditions: human, HepG2 cells, 48 h incubation
Experimental: as §3, §4

[4] = tested on: Staphylococcus aureus ATCC 6538; test: Minimum bactericidal concentration, S. aureus ATCC 6538; type: cell-based; conditions: ATCC6538, 99.9% reduction of inoculum
Experimental: as §1, §2

[5] = tested on: Staphylococcus aureus 4220; test: Minimum bactericidal concentration, S. aureus 4220; type: cell-based; conditions: 99.9% reduction of inoculum
Experimental: as §1, §2

[6] = tested on: Staphylococcus aureus ATCC 43300; test: Minimum bactericidal concentration, S. aureus ATCC 43300; type: cell-based; conditions: ATCC43300
Experimental: as §1, §2

Staphylococcus aureus = tested on: Staphylococcus aureus; parameters: method as in PMID 28946655; conditions: cited from earlier work
[7] = tested on: three Gram-positive bacteria strains and two Gram-negative bacteria strains; parameters: method as in PMID 29968851; conditions: cited from earlier work
[8] = tested on: four bacteria and three fungi; parameters: method as in doi:10.1007/s11164-013-1403-x; conditions: cited from earlier work
E. coli ATCC 25,922 = tested on: E. coli ATCC 25,922; parameters: method as in PMID 33839249; conditions: cited from earlier work
[9] = tested on: Gram-positive and Gram-negative bacterial strains; parameters: method as in PMID 27318539; conditions: most of the tested Gram-positive and Gram-negative bacterial strains; cited from earlier work
[10] = S. aureus 4220, Gram-positive, 24 h culture, read-out: MIC
[11] = Escherichia coli, E. coli 1924, Gram-negative, 24 h culture, read-out: MIC
[12] = Candida albicans, CMCC98001, 24 h, read-out: MIC
[13] = ATCC25922, E. coli ATCC 25922, Gram-negative, 24 h culture, read-out: MIC
[14] = CMCC10211, P. aeruginosa CMCC 10211, Gram-negative, 24 h culture, read-out: MIC
[15] = S. aureus ATCC 6538, Gram-positive, 24 h culture, read-out: MIC
[16] = Candida albicans, CMCC98001, 24 h

With `C/C(O)=C1/C(=O)N(C)c2ccccc21` [Compound 5a, (Z)-3-(1-hydroxyethylidene)-1-methylindolin-2-one] the MIC (MRSA ATCC 43300; read-out: MIC) was greater than 64 µg/mL, the melting point was 95 to 97 °C and the MIC (S. aureus 4220; [10]) was 64 µg/mL (≈ 338 µM). For the same compound, the MIC (E. coli 1924; [11]) was 64 µg/mL (≈ 338 µM), the MIC (C. albicans CMCC 98001; [12]) was 32 µg/mL (≈ 169 µM) and the MIC (E. coli ATCC 25922; [13]) was greater than 64 µg/mL. The MIC (P. aeruginosa CMCC 10211; [14]) was 64 µg/mL (≈ 338 µM) and the MIC (S. aureus ATCC 6538; [15]) was greater than 64 µg/mL.
Work on `CN1C(=O)/C(=C(\O)c2cccs2)c2ccccc21` [Compound 10a, (Z)-3-(hydroxy(thiophen-2-yl)methylene)-1-methylindolin-2-one] yielded an MIC (MRSA ATCC 43300; read-out: MIC) of 64 µg/mL (≈ 249 µM), a melting point of 141 to 143 °C and an MIC (S. aureus 4220; [10]) greater than 64 µg/mL. The MIC (E. coli 1924; [11]) was 32 µg/mL (≈ 124 µM), the MIC (C. albicans CMCC 98001; [12]) was 64 µg/mL (≈ 249 µM) and the MIC (E. coli ATCC 25922; [13]) was greater than 64 µg/mL. It also gave an MIC (P. aeruginosa CMCC 10211; [14]) of 64 µg/mL (≈ 249 µM) and an MIC (S. aureus ATCC 6538; [15]) of 64 µg/mL (≈ 249 µM).
Compound `CN1C(=O)/C(=C(\O)c2ccc(F)cc2)c2ccccc21` [Compound 10d, (Z)-3-((4-fluorophenyl)(hydroxy)methylene)-1-methylindolin-2-one] has an MIC (MRSA ATCC 43300) of 32 µg/mL (≈ 119 µM), an MIC (S. aureus 4220) of 16 µg/mL (≈ 59.4 µM) and an MIC (E. coli 1924; Escherichia coli, 1924, 24 h) of 8 µg/mL (≈ 29.7 µM). The MFC/MIC [1] was 2, the MFC ([1]; CMCC98001, 99.9% reduction of inoculum) was 16 µg/mL (≈ 59.4 µM) and the “antifungal activity (class in words)” value (C. albicans CMCC 98001; C. albicans CMCC 98001) was “moderate antifungal activity”. It also gave an MIC (C. albicans CMCC 98001) of 8 µg/mL (≈ 29.7 µM), an MIC (C. albicans CMCC 98001; [16]) of 8 to 16 µg/mL (≈ 29.7 to 59.4 µM) and an MIC (E. coli ATCC 25922; ATCC25922, 24 h) of 64 µg/mL (≈ 238 µM). It also gave an MIC (P. aeruginosa CMCC 10211; CMCC10211, 24 h) greater than 64 µg/mL and an MIC (S. aureus ATCC 6538) of 4 µg/mL (≈ 14.9 µM).
For `Cc1cccc2c1N(C)C(=O)/C2=C(\O)c1ccc(Cl)cc1` [Compound 10f, (Z)-3-((4-chlorophenyl)(hydroxy)methylene)-1,7-dimethylindolin-2-one], the IC50 at 48 h [2] was greater than 100 µM, the MIC (MRSA ATCC 43300) was 2 µg/mL (≈ 6.67 µM) and the IC50 at 48 h [3] was greater than 100 µM. For the same compound, the MIC (S. aureus 4220) was 4 µg/mL (≈ 13.3 µM), the MIC (E. coli 1924; Escherichia coli, 1924, 24 h) was 8 µg/mL (≈ 26.7 µM) and the MIC (C. albicans CMCC 98001; [16]) was greater than 64 µg/mL. It also gave an MIC (E. coli ATCC 25922; ATCC25922, 24 h) greater than 64 µg/mL, an MIC (P. aeruginosa CMCC 10211; CMCC10211, 24 h) greater than 64 µg/mL and an MBC [4] of 32 µg/mL (≈ 107 µM). It also gave an MIC (S. aureus ATCC 6538) of 0.5 µg/mL (≈ 1.67 µM).
In the case of `CN1C(=O)/C(=C(\O)c2ccc(Cl)cc2)c2cccc(Br)c21` [Compound 10g, (Z)-7-bromo-3-((4-chlorophenyl)(hydroxy)methylene)-1-methylindolin-2-one], the IC50 at 48 h [2] is reported as greater than 100 µM, the MIC (MRSA ATCC 43300) is reported as 0.5 µg/mL (≈ 1.37 µM) and the IC50 at 48 h [3] is reported as greater than 100 µM. It also gave an MIC (S. aureus 4220) of 0.5 µg/mL (≈ 1.37 µM), an MIC (E. coli 1924; Escherichia coli, 1924, 24 h) of 1 µg/mL (≈ 2.74 µM) and an MIC (C. albicans CMCC 98001; [16]) greater than 64 µg/mL. For the same compound, the MBC [5] was 32 µg/mL (≈ 87.8 µM), the MIC (E. coli ATCC 25922; ATCC25922, 24 h) was 64 µg/mL (≈ 176 µM) and the MIC (P. aeruginosa CMCC 10211; CMCC10211, 24 h) was greater than 64 µg/mL. The MIC (S. aureus ATCC 6538) was 2 µg/mL (≈ 5.49 µM).
For `CCCN1C(=O)/C(=C(\O)c2ccc(Cl)cc2)c2ccccc21` [Compound 10h, (Z)-3-((4-chlorophenyl)(hydroxy)methylene)-1-propylindolin-2-one], the IC50 at 48 h [2] was 53.5 µM, the MIC (MRSA ATCC 43300) was 0.5 µg/mL (≈ 1.59 µM) and the IC50 at 48 h [3] was 41.6 µM. The MBC [6] was 32 µg/mL (≈ 102 µM), the MIC (S. aureus 4220) was 1 µg/mL (≈ 3.19 µM) and the MIC (E. coli 1924; Escherichia coli, 1924, 24 h) was 1 µg/mL (≈ 3.19 µM). For the same compound, the MIC (C. albicans CMCC 98001; [16]) was 64 µg/mL (≈ 204 µM), the MIC (E. coli ATCC 25922; ATCC25922, 24 h) was 16 µg/mL (≈ 51 µM) and the MIC (P. aeruginosa CMCC 10211; CMCC10211, 24 h) was 16 µg/mL (≈ 51 µM). It also gave an MIC (S. aureus ATCC 6538) of 0.5 µg/mL (≈ 1.59 µM).
In the case of `O=C1NC(c2c[nH]c3ccc(O)cc23)=C/C1=C1\C(=O)Nc2ccccc21` [Compound VI, violacein], the MIC (Staphylococcus aureus) is listed as 6.25 µM (≈ 2.15 µg/mL).
For `Cn1c([N+](=O)[O-])cnc1/C=C1/C(=O)Nc2ccc([N+](=O)[O-])cc21` [Compound XI], the MIC [7] is listed as 0.0625 to 4 µg/mL.
In the case of `O=C1Nc2ccccc2/C1=C\C(=O)c1cc(Cl)c(Cl)cc1O` [Compound X], the MIC [8] is given as 12 to 18 µg/mL.
For `OC(Cn1cncn1)(Cn1cncn1)c1ccc(F)cc1F` [Flu, Fluconazole, reference compound], the MIC (MRSA ATCC 43300; read-out: MIC) was greater than 64 µg/mL, the MIC (S. aureus 4220; [10]) was greater than 64 µg/mL and the MIC (E. coli 1924; [11]) was greater than 64 µg/mL. It also gave an MIC (C. albicans CMCC 98001; [12]) of 2 µg/mL (≈ 6.53 µM), an MIC (E. coli ATCC 25922; [13]) greater than 64 µg/mL and an MIC (P. aeruginosa CMCC 10211; [14]) greater than 64 µg/mL. The MIC (S. aureus ATCC 6538; [15]) was greater than 64 µg/mL.
`COc1c(N2CCNC(C)C2)c(F)cc2c(=O)c(C(=O)O)cn(C3CC3)c12` (stereo not shown) [Gati, Gatifloxacin, reference compound] gave an MIC (MRSA ATCC 43300; read-out: MIC) of 0.5 µg/mL (≈ 1.33 µM), an MIC (S. aureus 4220; [10]) of 0.5 µg/mL (≈ 1.33 µM) and an MIC (E. coli 1924; [11]) of 0.5 µg/mL (≈ 1.33 µM). For the same compound, the MIC (C. albicans CMCC 98001; [12]) was greater than 64 µg/mL, the MIC (E. coli ATCC 25922; [13]) was 0.5 µg/mL (≈ 1.33 µM) and the MIC (P. aeruginosa CMCC 10211; [14]) was 0.5 µg/mL (≈ 1.33 µM). For the same compound, the MIC (S. aureus ATCC 6538; [15]) was 0.5 µg/mL (≈ 1.33 µM).
In the case of `CCC(=O)/C=C1/C(=O)N(CCn2cncn2)c2ccccc21` [IX], the MIC (E. coli ATCC 25,922) is listed as 1 µg/mL (≈ 3.37 µM).
In the case of `CN(C)c1cccc2cc(S(=O)(=O)N3CCN(c4ccc(/C=C5\C(=O)Nc6ccccc65)cc4)CC3)ccc12` [VII], the MIC [9] is listed as 12.5 to 50 µg/mL.
